# Molecular target: P. falciparum apicoplast DNA polymerase (Pf-apPOL) (Plasmodium falciparum, UniProt Q8ILY1)
# Assay: Fluorescence-based high-throughput DNA polymerase assay (molecular beacon), primary screen and dose-response;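 as to % inhibition ApPOL 90': test concentration in µM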;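 as to % inhibition apPOL 180': test concentration in µM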
# Format: biochemical
# Method in brief: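 Single-point screening used 10 µM compound with 20 nM polymerase, 20 nM hairpin substrate and 6 µM dNTPs for 90 min at 25 °C. Confirmatory titrations (2.5–80 µM) followed fluorescence at three times, and IC50 was derived from a fit including a cooperativity term n.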
# [1] = supplemental file 2, sheet IC50 nontoxic compounds; Pf-apPOL
# Sequence of P. falciparum apicoplast DNA polymerase (Pf-apPOL) (Q8ILY1 entry or part of it): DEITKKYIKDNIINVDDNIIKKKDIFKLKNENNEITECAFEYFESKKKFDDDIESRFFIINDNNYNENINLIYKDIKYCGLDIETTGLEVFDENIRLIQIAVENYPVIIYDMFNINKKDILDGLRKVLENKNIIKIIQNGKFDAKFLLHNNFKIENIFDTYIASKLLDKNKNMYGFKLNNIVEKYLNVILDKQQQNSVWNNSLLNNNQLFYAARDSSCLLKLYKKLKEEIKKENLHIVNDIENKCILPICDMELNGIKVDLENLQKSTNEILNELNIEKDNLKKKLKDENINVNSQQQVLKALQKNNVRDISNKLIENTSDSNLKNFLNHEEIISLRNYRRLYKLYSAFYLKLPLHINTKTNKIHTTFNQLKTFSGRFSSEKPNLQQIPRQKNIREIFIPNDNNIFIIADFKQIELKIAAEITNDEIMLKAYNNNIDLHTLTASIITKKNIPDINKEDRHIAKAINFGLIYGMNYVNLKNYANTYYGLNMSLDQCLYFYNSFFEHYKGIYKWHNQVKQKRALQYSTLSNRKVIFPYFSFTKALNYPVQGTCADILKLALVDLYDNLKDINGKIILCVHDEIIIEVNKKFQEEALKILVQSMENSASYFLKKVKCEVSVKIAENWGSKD
structure (smiles),measurement,setting,value
"CN1CC(=Cc2ccco2)C(=O)C(=Cc2ccco2)C1 [Molecule 65, CN1CC(=Cc2ccco2)C(=O)C(=Cc2ccco2)C1]",DNA Pol,"'DNA Pol'; screening value, unit not given; 90 min, 10 µM",69
same,% inhibition Apo pol 10',DRC-1; 10'; concentration 2.5,22.1284%
same,% inhibition Apo pol 10',DRC-1; 10'; concentration 5,42.6789%
same,% inhibition Apo pol 10',DRC-1; 10'; concentration 10,54.6654%
same,% inhibition Apo pol 10',DRC-1; 10'; concentration 20,60.4298%
same,% inhibition Apo pol 10',DRC-1; 10'; concentration 40,67.6613%
same,% inhibition Apo pol 10',DRC-1; 10'; concentration 80,69.4432%
same,% inhibition Apol 90',DRC-1; 90'; concentration 2.5,10.4669%
same,% inhibition Apol 90',DRC-1; 90'; concentration 5,22.0675%
same,% inhibition Apol 90',DRC-1; 90'; concentration 10,32.2145%
same,% inhibition Apol 90',DRC-1; 90'; concentration 20,39.744%
same,% inhibition Apol 90',DRC-1; 90'; concentration 40,50.5992%
same,% inhibition Apol 90',DRC-1; 90'; concentration 80,58.0625%
same,% inhibition apPOL 180',DRC-1; 180'; concentration 2.5,4.595%
same,% inhibition apPOL 180',DRC-1; 180'; concentration 5,8.893%
same,% inhibition apPOL 180',DRC-1; 180'; concentration 10,17.702%
same,% inhibition apPOL 180',DRC-1; 180'; concentration 20,24.3352%
same,% inhibition apPOL 180',DRC-1; 180'; concentration 40,38.0441%
same,% inhibition apPOL 180',DRC-1; 180'; concentration 80,50.1748%
same,% inhibition Apo pol 5',"DRC-2, 5', concentration 2.5",27%
same,% inhibition Apo pol 5',"DRC-2, 5', concentration 5",34%
same,% inhibition Apo pol 5',"DRC-2, 5', concentration 10",42%
same,% inhibition Apo pol 5',"DRC-2, 5', concentration 20",45%
same,% inhibition Apo pol 5',"DRC-2, 5', concentration 40",49%
same,% inhibition Apo pol 5',"DRC-2, 5', concentration 80",47%
same,% inhibition Apol 40',"DRC-2, 40', concentration 2.5",21%
same,% inhibition Apol 40',"DRC-2, 40', concentration 5",27%
same,% inhibition Apol 40',"DRC-2, 40', concentration 10",37%
same,% inhibition Apol 40',"DRC-2, 40', concentration 20",43%
same,% inhibition Apol 40',"DRC-2, 40', concentration 40",52%
same,% inhibition Apol 40',"DRC-2, 40', concentration 80",55%
same,% inhibition ApPOL 90',"DRC-2, 90', concentration 2.5",17%
same,% inhibition ApPOL 90',"DRC-2, 90', concentration 5",21%
same,% inhibition ApPOL 90',"DRC-2, 90', concentration 10",32%
same,% inhibition ApPOL 90',"DRC-2, 90', concentration 20",38%
same,% inhibition ApPOL 90',"DRC-2, 90', concentration 40",50%
same,% inhibition ApPOL 90',"DRC-2, 90', concentration 80",56%
same,% inhibition apPOL 180',"DRC-2, 180', concentration 2.5",8%
same,% inhibition apPOL 180',"DRC-2, 180', concentration 5",8%
same,% inhibition apPOL 180',"DRC-2, 180', concentration 10",20%
same,% inhibition apPOL 180',"DRC-2, 180', concentration 20",28%
same,% inhibition apPOL 180',"DRC-2, 180', concentration 40",42%
same,% inhibition apPOL 180',"DRC-2, 180', concentration 80",54%
same,% inhibition Apo pol 5',conc 2.5 (unit not given); 5'; DRC-2,27%
same,% inhibition Apol 40',conc 2.5 (unit not given); 40'; DRC-2,21%
same,% inhibition apPOL 180',conc 2.5 (unit not given); 180'; DRC-2,8%
same,% inhibition Apol 40',conc 5 (unit not given); 40'; DRC-2,27%
same,% inhibition ApPOL 90',conc 5 (unit not given); 90'; DRC-2,21%
same,% inhibition apPOL 180',conc 5 (unit not given); 180'; DRC-2,8%
same,% inhibition Apo pol 5',conc 10 (unit not given); 5'; DRC-2,42%
same,% inhibition apPOL 180',conc 40 (unit not given); 180'; DRC-2,42%
same,DNA Pol,"primary screen hit value, DNA Pol (186 hits); 90 min, 10 µM",69
COc1ccc(NC(=O)Cn2ccc3c(=O)[nH]ccc32)cc1Cl [Molecule 10],IC50,[1],6.2 µM
"Cc1cc(C)c2c(c1)C1C=CCC1C(c1ccc(C(=O)O)cc1)N2 (centres unmarked) [Molecule 102, Cc1cc(C)c2c(c1)C1C=CCC1C(N2)c1ccc(cc1)C(=O)O]",DNA Pol,"'DNA Pol' of the 186 hits list (screen value); 90 min, 10 µM",60
same,% inhibition Apo pol 10',DRC-1; 10'; conc 2.5,46.2676%
same,% inhibition Apo pol 10',DRC-1; 10'; conc 5,62.6778%
same,% inhibition Apo pol 10',DRC-1; 10'; conc 10,76.4739%
same,% inhibition Apo pol 10',DRC-1; 10'; conc 20,82.8067%
same,% inhibition Apo pol 10',DRC-1; 10'; conc 40,91.6956%
same,% inhibition Apo pol 10',DRC-1; 10'; conc 80,93.5405%
same,% inhibition Apol 90',DRC-1; 90'; conc 2.5,14.3309%
same,% inhibition Apol 90',DRC-1; 90'; conc 5,28.3959%
same,% inhibition Apol 90',DRC-1; 90'; conc 10,47.4171%
same,% inhibition Apol 90',DRC-1; 90'; conc 20,62.2374%
same,% inhibition Apol 90',DRC-1; 90'; conc 40,86.2676%
same,% inhibition Apol 90',DRC-1; 90'; conc 80,94.9161%
same,% inhibition apPOL 180',DRC-1; 180'; conc 2.5,1.778%
same,% inhibition apPOL 180',DRC-1; 180'; conc 5,12.6672%
same,% inhibition apPOL 180',DRC-1; 180'; conc 10,32.4501%
same,% inhibition apPOL 180',DRC-1; 180'; conc 20,53.0918%
same,% inhibition apPOL 180',DRC-1; 180'; conc 40,83.5057%
same,% inhibition apPOL 180',DRC-1; 180'; conc 80,95.0431%
same,% inhibition Apo pol 5',DRC-2; 5'; conc 2.5,40%
same,% inhibition Apo pol 5',DRC-2; 5'; conc 5,51%
same,% inhibition Apo pol 5',DRC-2; 5'; conc 10,55%
same,% inhibition Apo pol 5',DRC-2; 5'; conc 20,58%
same,% inhibition Apo pol 5',DRC-2; 5'; conc 40,59%
same,% inhibition Apo pol 5',DRC-2; 5'; conc 80,58%
same,% inhibition Apo pol 5',DRC-2; 5'; concentration 2.5,40%
same,% inhibition Apo pol 5',DRC-2; 5'; concentration 20,58%
same,% inhibition Apo pol 5',DRC-2; 5'; concentration 40,59%
same,% inhibition Apo pol 5',DRC-2; 5'; concentration 80,58%
same,% inhibition Apol 40',DRC-2; 40'; conc 2.5,34%
same,% inhibition Apol 40',DRC-2; 40'; conc 5,50%
same,% inhibition Apol 40',DRC-2; 40'; conc 10,59%
same,% inhibition Apol 40',DRC-2; 40'; conc 20,71%
same,% inhibition Apol 40',DRC-2; 40'; conc 40,76%
same,% inhibition Apol 40',DRC-2; 40'; conc 80,75%
same,% inhibition Apol 40',DRC-2; 40'; concentration 10,59%
same,% inhibition Apol 40',DRC-2; 40'; concentration 80,75%
same,% inhibition ApPOL 90',DRC-2; 90'; conc 2.5,28%
same,% inhibition ApPOL 90',DRC-2; 90'; conc 5,47%
same,% inhibition ApPOL 90',DRC-2; 90'; conc 10,58%
same,% inhibition ApPOL 90',DRC-2; 90'; conc 20,73%
same,% inhibition ApPOL 90',DRC-2; 90'; conc 40,80%
same,% inhibition ApPOL 90',DRC-2; 90'; conc 80,79%
same,% inhibition ApPOL 90',DRC-2; 90'; concentration 10,58%
same,% inhibition apPOL 180',DRC-2; 180'; conc 2.5,19%
same,% inhibition apPOL 180',DRC-2; 180'; conc 5,40%
same,% inhibition apPOL 180',DRC-2; 180'; conc 10,54%
same,% inhibition apPOL 180',DRC-2; 180'; conc 20,75%
same,% inhibition apPOL 180',DRC-2; 180'; conc 40,83%
same,% inhibition apPOL 180',DRC-2; 180'; conc 80,83%
same,% inhibition apPOL 180',DRC-2; 180'; concentration 5,40%
same,% inhibition apPOL 180',DRC-2; 180'; concentration 20,75%
same,% inhibition apPOL 180',DRC-2; 180'; concentration 40,83%
same,% inhibition apPOL 180',DRC-2; 180'; concentration 80,83%
same,DNA Pol,"primary screen value, ""DNA Pol""; 90 min, 10 µM",60
CN(C)C=CC(=O)c1ccccn1 [Molecule 64],IC50,[1],18.5 µM
"Oc1ccc(N=Nc2ccccc2)c(O)c1 [Molecule 80, Oc1ccc(c(c1)O)N=Nc1ccccc1]",DNA Pol,"186 hits, value of the hit list (primary screen); unit not given; 90 min, 10 µM",72
same,% inhibition Apo pol 10',DRC-1; 10'; concentration 2.5,10.9556%
same,% inhibition Apo pol 10',DRC-1; 10'; concentration 5,10.5427%
same,% inhibition Apo pol 10',DRC-1; 10'; concentration 10,21.5612%
same,% inhibition Apo pol 10',DRC-1; 10'; concentration 20,33.6555%
same,% inhibition Apo pol 10',DRC-1; 10'; concentration 40,51.3856%
same,% inhibition Apo pol 10',DRC-1; 10'; concentration 80,71.5271%
same,% inhibition Apol 90',DRC-1; 90'; concentration 2.5,-0.1987%
same,% inhibition Apol 90',DRC-1; 90'; concentration 5,0.4517%
same,% inhibition Apol 90',DRC-1; 90'; concentration 10,6.956%
same,% inhibition Apol 90',DRC-1; 90'; concentration 20,15.0719%
same,% inhibition Apol 90',DRC-1; 90'; concentration 40,30.4244%
same,% inhibition Apol 90',DRC-1; 90'; concentration 80,54.1765%
same,% inhibition apPOL 180',DRC-1; 180'; concentration 2.5,-4.521%
same,% inhibition apPOL 180',DRC-1; 180'; concentration 5,-7.381%
same,% inhibition apPOL 180',DRC-1; 180'; concentration 10,-2.239%
same,% inhibition apPOL 180',DRC-1; 180'; concentration 20,3.639%
same,% inhibition apPOL 180',DRC-1; 180'; concentration 40,16.6852%
same,% inhibition apPOL 180',DRC-1; 180'; concentration 80,39.1474%
same,% inhibition Apo pol 5',"DRC-2, 5', concentration 2.5",1.77%
same,% inhibition Apo pol 5',"DRC-2, 5', concentration 5",5.48%
same,% inhibition Apo pol 5',"DRC-2, 5', concentration 10",24%
same,% inhibition Apo pol 5',"DRC-2, 5', concentration 20",31%
same,% inhibition Apo pol 5',"DRC-2, 5', concentration 40",44%
same,% inhibition Apo pol 5',"DRC-2, 5', concentration 80",51%
same,% inhibition Apol 40',"DRC-2, 40', concentration 2.5",1.06%
same,% inhibition Apol 40',"DRC-2, 40', concentration 5",2.17%
same,% inhibition Apol 40',"DRC-2, 40', concentration 10",23%
same,% inhibition Apol 40',"DRC-2, 40', concentration 20",29%
same,% inhibition Apol 40',"DRC-2, 40', concentration 40",43%
same,% inhibition Apol 40',"DRC-2, 40', concentration 80",54%
same,% inhibition ApPOL 90',"DRC-2, 90', concentration 2.5",-1%
same,% inhibition ApPOL 90',"DRC-2, 90', concentration 5",-0.664%
same,% inhibition ApPOL 90',"DRC-2, 90', concentration 10",21%
same,% inhibition ApPOL 90',"DRC-2, 90', concentration 20",24%
same,% inhibition ApPOL 90',"DRC-2, 90', concentration 40",38%
same,% inhibition ApPOL 90',"DRC-2, 90', concentration 80",52%
same,% inhibition apPOL 180',"DRC-2, 180', concentration 2.5",-4%
same,% inhibition apPOL 180',"DRC-2, 180', concentration 5",-4.42%
same,% inhibition apPOL 180',"DRC-2, 180', concentration 10",16%
same,% inhibition apPOL 180',"DRC-2, 180', concentration 20",15%
same,% inhibition apPOL 180',"DRC-2, 180', concentration 40",25%
same,% inhibition apPOL 180',"DRC-2, 180', concentration 80",41%
same,% inhibition Apo pol 5',DRC-2; 5'; concentration 10,24%
same,% inhibition ApPOL 90',DRC-2; 90'; concentration 20,24%
same,DNA Pol,"primary screen value, 'DNA Pol' only; 90 min, 10 µM",72

# Source: article PMC9090415, “Discovery of small molecule inhibitors of Plasmodium falciparum apicoplast DNA polymerase” (Journal of Enzyme Inhibition and Medicinal Chemistry, 2022)
